Laboratory results taken from the NIST ThermoML archive (doi:10.1016/j.jct.2015.06.017).

Settings: Liquid, Closed cell (Static) method

C=CC [propene]
Settings | vapor or sublimation pressure [kPa]
282.97 K | 769
287.57 K | 873
293.48 K | 1028
298.02 K | 1152
302.83 K | 1291
307.67 K | 1458
314.06 K | 1691
318.36 K | 1854
322.91 K | 2039
327.27 K | 2239
